The results in this text go back to PMC7318308, “A Novel Synthetic Dual Agonistic Liposomal TLR4/7 Adjuvant Promotes Broad Immune Responses in an Influenza Vaccine With Minimal Reactogenicity” (Frontiers in Immunology, 2020).

In data set [1] the test system is HEK-Blue mTLR4 reporter cells. Briefly: MTT cell viability, murine TLR4 reporter cells. The note with it: concentrations below 10 µM, MTT. Format: cell-based. The method, then: (§1) TLR4/NF-κB activation was assessed using HEK-Blue™ hTLR4 and HEK-Blue™ mTLR4 (InvivoGen). The cells were treated with 1Z105 and 2B182C (2-fold serial dilutions starting from 10 μM) for 20 h. NF-κB inducible secreted embryonic alkaline phosphatase (SEAP) protein in the culture supernatant was measured according to manufacturer's protocol. To evaluate cell viability, 0.5 mg/mL 3-[4,5-dimethylthiazol-2-yl]-2,5-dipheyl tetrazolium bromide (MTT, Thermo Fisher Scientific) solution was added to each well and incubated at 37°C. Six hours later, formazan crystals were lysed with lysis buffer (15% SDS and 0.12% 12 N HCl) and the absorbance was measured at 570 nm using 650 nm as a reference with a plate reader (Tecan, Switzerland).
Human TLR4 reporter cells Murine TLR4 reporter cells
[Compound] 1 μM 10 [Compound] 1 μM 10
Supplementary Figure 1. Dose response curves for cell viability (toxicity) of lead compounds in human and murine TLR4-NF-κB reporter cells. Cellular toxicity evaluated by MTT assay is presented as % viability normalized to vehicle (0.5% DMSO) as 100%. While 1Z105 had minimal toxicity in both hTLR4 and mTLR4 reporter cells (HEK-BlueTM hTLR4 and HEK-BlueTM mTLR4, […]
(also on this page, place not known: %Relative (Normalized 100%) 101101 viability vehicle as to)

Data set [2] concerns TLR4-NF-κB reporter cells. Briefly: MTT cell viability in TLR4-NF-κB reporter cells. The note with it: for toxicity in cell-based MTT assay (in words): viability at 5 μM in Figure 1C, normalized to vehicle. Format: cell-based. The method, then:
(§2) Figure 1 Structure-activity relationship studies in TLR4 agonistic pyrimidoindoles. (A) Syntheses of C8-alkynyl and C8-alkyl analogs. (B) Syntheses of C8-aryl analogs. (C) Scatter plot of hTLR4 and mTLR4 agonistic activity in TLR4-NF-κB HEK reporter cells (HEK-Blue™ hTLR4 and HEK-Blue™ mTLR4, respectively). NF-κB inducible NF-κB SEAP levels in culture supernatants were measured according to manufacturer's protocol. The TLR4 agonistic potency was evaluated as area under the curve (AUC) calculated for dose response curve using 2-fold serial dilutions from 10 μM, and normalized to the AUC for 2B110 as 100% on both axes. […] The color of each point is based on cell viability in TLR4-NF-κB reporter cells for compounds evaluated at 5 μM concentration. Viability data was normalized to vehicle control (Vehicle OD570−650 = 0.58 ± 0.01). (D) Structures of the lead compounds with differences at C8 substitution highlighted in blue.
as §1
Background: Tetrazolium assays rely on reduction of a dye to a coloured formazan, in cell work by metabolically active cells.

The target of data set [3] is T1, mouse TLR4 (Mus musculus, UniProt Q9JHF9+Q9QUK6).
T1 construct: host or cells: HEK-Blue mTLR4 (HEK293-derived NF-κB/SEAP reporter cells)
T1 sequence (Q9QUK6 26-835): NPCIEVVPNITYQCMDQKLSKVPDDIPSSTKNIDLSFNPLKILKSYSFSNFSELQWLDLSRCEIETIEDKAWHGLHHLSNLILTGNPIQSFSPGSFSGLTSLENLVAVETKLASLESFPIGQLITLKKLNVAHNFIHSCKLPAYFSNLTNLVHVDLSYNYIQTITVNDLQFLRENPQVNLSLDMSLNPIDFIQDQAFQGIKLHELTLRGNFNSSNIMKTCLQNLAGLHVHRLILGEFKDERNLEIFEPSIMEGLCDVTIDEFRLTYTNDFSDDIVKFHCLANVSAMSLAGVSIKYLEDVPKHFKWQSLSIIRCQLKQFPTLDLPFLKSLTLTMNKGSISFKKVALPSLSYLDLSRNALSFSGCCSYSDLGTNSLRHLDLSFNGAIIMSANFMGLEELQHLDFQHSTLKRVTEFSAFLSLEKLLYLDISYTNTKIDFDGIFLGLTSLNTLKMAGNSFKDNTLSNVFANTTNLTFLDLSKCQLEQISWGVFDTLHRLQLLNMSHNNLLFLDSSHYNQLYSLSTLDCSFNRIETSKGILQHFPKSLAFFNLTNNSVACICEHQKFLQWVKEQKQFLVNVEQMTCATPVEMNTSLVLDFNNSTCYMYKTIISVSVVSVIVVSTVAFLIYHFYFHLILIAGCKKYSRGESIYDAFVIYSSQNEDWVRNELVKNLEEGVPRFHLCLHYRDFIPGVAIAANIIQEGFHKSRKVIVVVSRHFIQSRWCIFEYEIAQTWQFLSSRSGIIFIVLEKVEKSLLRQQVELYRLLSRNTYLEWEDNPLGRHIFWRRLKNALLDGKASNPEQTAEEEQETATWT
T1 sequence (Q9JHF9 19-160): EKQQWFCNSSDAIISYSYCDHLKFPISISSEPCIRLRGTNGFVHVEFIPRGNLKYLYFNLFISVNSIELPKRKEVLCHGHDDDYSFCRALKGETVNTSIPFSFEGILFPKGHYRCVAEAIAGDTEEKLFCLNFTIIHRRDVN
Description: TLR4/NF-κB reporter cell assay (SEAP), HEK-Blue mTLR4. Type of data set: cell-based. The note with it: for murine TLR4 agonistic activity (in words): AUC normalized to 2B110 as 100%, Figure 1C. The method, then:
as §2
(§3) Titration curves of 1Z105 and derivatives were used to assess their potency in stimulating human and mouse TLR4 response using HEK NF-κB reporter cells (HEK-Blue™ hTLR4 and mTLR4, respectively). The areas under the curve for dose response curves relative to vehicle (0.5% DMSO) were normalized to the greatest activity as 100% of 2B110 for both assays (Figure 1C). The compounds were also tested for in vitro toxicity by MTT assay (Figure 1C, Supplementary Figure 1).
as §1

Data set [4] has as its target T2, human TLR4 (Homo sapiens, UniProt O00206+Q9Y6Y9).
T2 construct: host or cells: HEK-Blue hTLR4 (HEK293-derived NF-κB/SEAP reporter cells)
Briefly: TLR4/NF-κB reporter cell assay (SEAP), HEK-Blue hTLR4. The note with it: for human TLR4 agonistic activity (in words): AUC normalized to 2B110 as 100%, Figure 1C. Format: cell-based. The method, then:
as §2, §3, §1

Data set [5] has as its system TLR4. Briefly: TLR4 activity in HEK NF-κB reporter cells, species not told apart in the text. Format: cell-based, human and mouse. The note with it: HEK-Blue hTLR4 and mTLR4, Figure 1C. Here is the method:
as §2, §3, §1

Setting [6] is: 2-fold serial dilutions from 10 μM, the value taken as 100% for normalisation.

T2 sequence (O00206 24-839): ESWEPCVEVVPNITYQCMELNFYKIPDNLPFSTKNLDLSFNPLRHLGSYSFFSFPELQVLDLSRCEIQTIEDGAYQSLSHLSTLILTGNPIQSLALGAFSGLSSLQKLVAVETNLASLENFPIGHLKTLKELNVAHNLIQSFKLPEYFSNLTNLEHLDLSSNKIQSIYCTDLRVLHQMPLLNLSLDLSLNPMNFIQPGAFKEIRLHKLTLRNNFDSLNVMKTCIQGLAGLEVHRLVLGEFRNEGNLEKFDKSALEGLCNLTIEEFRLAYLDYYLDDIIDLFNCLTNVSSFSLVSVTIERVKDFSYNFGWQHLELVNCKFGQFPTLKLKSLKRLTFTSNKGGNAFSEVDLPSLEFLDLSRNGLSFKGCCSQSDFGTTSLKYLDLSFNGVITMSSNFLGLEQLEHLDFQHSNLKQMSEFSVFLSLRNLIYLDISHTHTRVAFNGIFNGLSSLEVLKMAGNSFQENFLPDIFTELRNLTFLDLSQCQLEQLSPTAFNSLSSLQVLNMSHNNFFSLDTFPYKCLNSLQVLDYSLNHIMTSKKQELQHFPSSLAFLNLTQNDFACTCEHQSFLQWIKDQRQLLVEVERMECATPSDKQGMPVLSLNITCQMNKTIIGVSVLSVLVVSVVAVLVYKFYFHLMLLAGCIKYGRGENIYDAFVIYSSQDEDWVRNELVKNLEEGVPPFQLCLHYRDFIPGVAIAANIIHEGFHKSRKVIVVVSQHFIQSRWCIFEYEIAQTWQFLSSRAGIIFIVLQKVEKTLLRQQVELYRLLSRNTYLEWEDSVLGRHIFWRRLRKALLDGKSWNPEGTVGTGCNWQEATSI
T2 sequence (Q9Y6Y9 17-160 limits assumed): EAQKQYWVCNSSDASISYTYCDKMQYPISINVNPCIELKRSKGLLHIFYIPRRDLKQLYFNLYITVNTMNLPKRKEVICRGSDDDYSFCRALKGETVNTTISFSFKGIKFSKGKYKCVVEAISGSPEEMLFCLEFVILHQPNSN

As to `Cn1c2ccc(-c3ccccc3)cc2c2nc(SCC(=O)NC3CCCCC3)n(-c3ccccc3)c(=O)c21` [2B110], the “toxicity at lower concentrations, mTLR4 reporter cells (in words)” value in data set [1] was “more toxic compared to 8s”. The “toxicity at 10 µM (in words)” value in data set [2] (10 µM, MTT, Supplementary Figure 1) was “exhibited toxicity”. The “toxicity in cell-based MTT assay (in words)” value in data set [2] is “slightly higher toxicity in MTT assays than did 2B182C”. Also, the “AUC of dose response curve, mTLR4 reporter cells” value in data set [3] (setting [6]) is 28.43 ± 5.49 units. Moreover, the “murine TLR4 agonistic activity (in words)” value in data set [3] is “high TLR4 stimulatory potency”. Moreover, the “AUC of dose response curve, hTLR4 reporter cells” value in data set [4] (setting [6]) is 14.95 ± 1.95. Also, the “human TLR4 agonistic activity (in words)” value in data set [4] was “high TLR4 stimulatory potency”. Consider `C#Cc1ccc2c(c1)c1nc(SCC(=O)NC3CCCCC3)n(-c3ccccc3)c(=O)c1n2C` [6a], for which the “TLR4 activity (species not told apart)” value in data set [5] was “reduction in TLR4 activity”.

With `CCCC#Cc1ccc2c(c1)c1nc(SCC(=O)NC3CCCCC3)n(-c3ccccc3)c(=O)c1n2C` [6b], the “TLR4 activity (species not told apart)” value in data set [5] is given as “highest level of TLR4 activation”.

Consider `CCCCCC#Cc1ccc2c(c1)c1nc(SCC(=O)NC3CCCCC3)n(-c3ccccc3)c(=O)c1n2C` [6c], for which the “TLR4 activity (species not told apart)” value in data set [5] was “reduction in TLR4 activity”.

As to `CCCCCCCCCCC#Cc1ccc2c(c1)c1nc(SCC(=O)NC3CCCCC3)n(-c3ccccc3)c(=O)c1n2C` [6d], in data set [5], the “TLR4 activity (species not told apart)” value is “completely inactive”.

Regarding `CCc1ccc(-c2ccc3c(c2)c2nc(SCC(=O)NC4CCCCC4)n(-c4ccccc4)c(=O)c2n3C)cc1` [8d], the “toxicity in cell-based MTT assay (in words)” value in data set [2] is listed as “relatively high toxicity”. For the same molecule, in data set [5], the “TLR4 activity (species not told apart)” value was “maintaining TLR4 activity”.

In the case of `CCCCc1ccc(-c2ccc3c(c2)c2nc(SCC(=O)NC4CCCCC4)n(-c4ccccc4)c(=O)c2n3C)cc1` [8e], the “toxicity in cell-based MTT assay (in words)” value in data set [2] was “relatively high toxicity”. The “TLR4 activity (species not told apart)” value in data set [5] is “maintaining TLR4 activity”. For the molecule `Cn1c2ccc(-c3cccc(-c4ccccc4)c3)cc2c2nc(SCC(=O)NC3CCCCC3)n(-c3ccccc3)c(=O)c21` [8f], in data set [4], the “human TLR4 agonistic activity (in words)” value was “dramatic loss of human TLR4 activity”.

In the case of `COc1cccc(-c2ccc3c(c2)c2nc(SCC(=O)NC4CCCCC4)n(-c4ccccc4)c(=O)c2n3C)c1` [8h], in data set [4], the “human TLR4 agonistic activity (in words)” value is given as “dramatic loss of human TLR4 activity”. In the case of `Cn1c2ccc(-c3cccc(N)c3)cc2c2nc(SCC(=O)NC3CCCCC3)n(-c3ccccc3)c(=O)c21` [8k], in data set [3], the “murine TLR4 agonistic activity (in words)” value is “significant loss”. Also, the “human TLR4 agonistic activity (in words)” value in data set [4] is on record as “significant loss”. `Cn1c2ccc(-c3cccc(C(=O)O)c3)cc2c2nc(SCC(=O)NC3CCCCC3)n(-c3ccccc3)c(=O)c21` [8l]: in data set [3], the “murine TLR4 agonistic activity (in words)” value is listed as “significant loss”. In addition, in data set [4], the “human TLR4 agonistic activity (in words)” value was “significant loss”. `Cn1c2ccc(-c3cccc(O)c3)cc2c2nc(SCC(=O)NC3CCCCC3)n(-c3ccccc3)c(=O)c21` [8m]: the “murine TLR4 agonistic activity (in words)” value in data set [3] was “significant loss”. In addition, in data set [4], the “human TLR4 agonistic activity (in words)” value was “significant loss”.

With `Cn1c2ccc(-c3cccc(C#N)c3)cc2c2nc(SCC(=O)NC3CCCCC3)n(-c3ccccc3)c(=O)c21` [8n], the “murine TLR4 agonistic activity (in words)” value in data set [3] is on record as “retained murine TLR4 activity”. Besides, the “human TLR4 agonistic activity (in words)” value in data set [4] is on record as “less potent than 2B110”. The corresponding values for `Cn1c2ccc(-c3cccc([N+](=O)[O-])c3)cc2c2nc(SCC(=O)NC3CCCCC3)n(-c3ccccc3)c(=O)c21` [8o] are “retained murine TLR4 activity” and “less potent than 2B110”.
